IC50 data for 2 compounds are collected here from BindingDB's records for doi:10.1016/S0960-894X(01)80688-0 (1994).

A short description of test [1]: Inhibitory activity was determined against almonds Beta-glucosidase.
Test [2] in a line: Inhibitory activity was determined against bovine liver beta galactosidase.
Test [3] can be described thus: Inhibitory activity was determined against Escherichia coli beta galactosidase.

Take `OCC1C(O)C(O)C2OC(Nc3ccccc3)=NC12` (stereo unspecified) [4-Hydroxymethyl-2-phenylamino-4,5,6,6a-tetrahydro-3aH-cyclopentaoxazole-5,6-diol]: the 50% inhibitory concentration (IC50) was above 300 µM in test [1], 3 µM in test [2] and above 300 µM in test [3].

Regarding `OCC1(O)C(O)C(O)C2N=C(Nc3ccccc3)OC21` (stereo unspecified) [6-Hydroxymethyl-2-phenylamino-4,5,6,6a-tetrahydro-3aH-cyclopentaoxazole-4,5,6-triol], the IC50 in test [1] was above 300 µM; in test [2], 153 µM; in test [3], above 300 µM.
